In patent US20120270237A9, “METHODS FOR THE IDENTIFICATION OF KINASE INTERACTING MOLECULES AND FOR THE PURIFICATION OF KINASE PROTEINS” (Cellzone AG, priority 2009, published 2012):

Columns and labels:
Assay in all cases: Kinobeads competition binding, HeLa Placenta lysate mix
Set-up in all cases: endogenous in cells
Conditions in all cases: 10 μM free compound
[1] = target: CaMK2g (Homo sapiens, UniProt Q13555)
In short: (§1)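 Free compound (10 μM) was allowed to bind lysate proteins before affinity beads bearing immobilized compound were added. Bound material, together with that from a DMSO control, was digested and measured by iTRAQ LC-MS/MS.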

[2] = target: IRAK3 (Homo sapiens, UniProt Q9Y616)
IRAK3, sequence (Q9Y616 whole entry): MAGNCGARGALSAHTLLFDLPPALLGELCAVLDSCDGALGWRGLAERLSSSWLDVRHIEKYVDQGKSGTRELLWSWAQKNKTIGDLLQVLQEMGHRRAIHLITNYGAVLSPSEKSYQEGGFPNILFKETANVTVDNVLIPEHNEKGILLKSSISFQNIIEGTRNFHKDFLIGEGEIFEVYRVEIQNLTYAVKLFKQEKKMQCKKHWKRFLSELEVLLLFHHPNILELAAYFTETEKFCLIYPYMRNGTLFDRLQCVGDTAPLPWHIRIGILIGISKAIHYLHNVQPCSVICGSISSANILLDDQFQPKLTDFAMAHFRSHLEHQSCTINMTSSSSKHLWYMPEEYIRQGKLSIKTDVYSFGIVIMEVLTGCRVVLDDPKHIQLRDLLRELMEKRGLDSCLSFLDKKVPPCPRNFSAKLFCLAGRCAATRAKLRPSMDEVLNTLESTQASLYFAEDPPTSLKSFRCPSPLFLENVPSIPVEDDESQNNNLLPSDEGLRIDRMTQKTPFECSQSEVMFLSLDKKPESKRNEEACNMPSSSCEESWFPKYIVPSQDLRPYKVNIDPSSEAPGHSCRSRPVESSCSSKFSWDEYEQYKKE
In short: as §1

[3] = target: AAK1 (Homo sapiens, UniProt Q2M2I8)
In short: as §1

[4] = target: T1, IRAK4 (Homo sapiens, UniProt Q9NWZ3)
T1 sequence (Q9NWZ3 1-460): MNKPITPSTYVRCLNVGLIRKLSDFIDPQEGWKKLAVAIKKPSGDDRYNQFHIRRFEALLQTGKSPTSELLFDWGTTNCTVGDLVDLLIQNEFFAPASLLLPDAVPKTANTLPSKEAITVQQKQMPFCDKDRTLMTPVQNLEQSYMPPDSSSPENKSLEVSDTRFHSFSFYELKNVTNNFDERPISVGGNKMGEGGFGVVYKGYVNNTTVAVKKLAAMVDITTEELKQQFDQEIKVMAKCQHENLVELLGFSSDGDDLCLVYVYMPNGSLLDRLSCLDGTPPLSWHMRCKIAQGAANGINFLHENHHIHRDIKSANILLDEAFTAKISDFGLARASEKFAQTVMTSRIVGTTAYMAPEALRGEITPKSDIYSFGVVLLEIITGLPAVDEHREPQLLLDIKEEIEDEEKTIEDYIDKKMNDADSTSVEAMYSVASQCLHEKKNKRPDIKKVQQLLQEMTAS
In short: as §1

[5] = target: GSK3A (Homo sapiens, UniProt P49840)
In short: as §1

[6] = target: BIKE (Homo sapiens, UniProt Q9NSY1)
BIKE, sequence (Q9NSY1 whole entry): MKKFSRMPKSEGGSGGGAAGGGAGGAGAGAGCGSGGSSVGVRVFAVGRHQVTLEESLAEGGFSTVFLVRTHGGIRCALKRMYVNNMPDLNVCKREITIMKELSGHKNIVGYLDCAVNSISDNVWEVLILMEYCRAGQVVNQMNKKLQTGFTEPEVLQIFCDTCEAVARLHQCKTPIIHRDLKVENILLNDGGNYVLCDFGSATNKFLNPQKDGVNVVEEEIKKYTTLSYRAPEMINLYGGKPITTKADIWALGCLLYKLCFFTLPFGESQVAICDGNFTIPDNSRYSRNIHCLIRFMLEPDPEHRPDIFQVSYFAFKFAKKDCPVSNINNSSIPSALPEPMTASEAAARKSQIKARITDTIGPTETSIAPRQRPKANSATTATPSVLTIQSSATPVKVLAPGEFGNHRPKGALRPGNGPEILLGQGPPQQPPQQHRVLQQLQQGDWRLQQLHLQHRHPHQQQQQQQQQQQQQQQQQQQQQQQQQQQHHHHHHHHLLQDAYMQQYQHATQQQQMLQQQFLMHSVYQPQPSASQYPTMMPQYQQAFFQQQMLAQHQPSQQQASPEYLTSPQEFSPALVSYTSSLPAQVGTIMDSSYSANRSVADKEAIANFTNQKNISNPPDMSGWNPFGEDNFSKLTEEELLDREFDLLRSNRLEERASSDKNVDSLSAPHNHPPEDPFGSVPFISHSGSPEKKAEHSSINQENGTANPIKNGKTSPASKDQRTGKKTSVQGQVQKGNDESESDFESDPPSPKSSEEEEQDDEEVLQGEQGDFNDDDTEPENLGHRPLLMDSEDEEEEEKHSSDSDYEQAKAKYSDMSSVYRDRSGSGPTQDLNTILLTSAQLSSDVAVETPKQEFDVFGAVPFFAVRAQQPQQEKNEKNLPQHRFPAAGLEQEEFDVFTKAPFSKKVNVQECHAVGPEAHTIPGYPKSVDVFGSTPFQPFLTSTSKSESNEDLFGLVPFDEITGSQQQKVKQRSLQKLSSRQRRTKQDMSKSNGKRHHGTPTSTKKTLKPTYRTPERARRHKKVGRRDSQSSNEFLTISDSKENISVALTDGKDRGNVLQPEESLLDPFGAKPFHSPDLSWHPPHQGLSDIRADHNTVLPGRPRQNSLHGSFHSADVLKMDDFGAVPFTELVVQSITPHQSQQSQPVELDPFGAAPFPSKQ
In short: as §1

[7] = target: MSK2 (Homo sapiens, UniProt O75676)
MSK2, sequence (O75676 whole entry): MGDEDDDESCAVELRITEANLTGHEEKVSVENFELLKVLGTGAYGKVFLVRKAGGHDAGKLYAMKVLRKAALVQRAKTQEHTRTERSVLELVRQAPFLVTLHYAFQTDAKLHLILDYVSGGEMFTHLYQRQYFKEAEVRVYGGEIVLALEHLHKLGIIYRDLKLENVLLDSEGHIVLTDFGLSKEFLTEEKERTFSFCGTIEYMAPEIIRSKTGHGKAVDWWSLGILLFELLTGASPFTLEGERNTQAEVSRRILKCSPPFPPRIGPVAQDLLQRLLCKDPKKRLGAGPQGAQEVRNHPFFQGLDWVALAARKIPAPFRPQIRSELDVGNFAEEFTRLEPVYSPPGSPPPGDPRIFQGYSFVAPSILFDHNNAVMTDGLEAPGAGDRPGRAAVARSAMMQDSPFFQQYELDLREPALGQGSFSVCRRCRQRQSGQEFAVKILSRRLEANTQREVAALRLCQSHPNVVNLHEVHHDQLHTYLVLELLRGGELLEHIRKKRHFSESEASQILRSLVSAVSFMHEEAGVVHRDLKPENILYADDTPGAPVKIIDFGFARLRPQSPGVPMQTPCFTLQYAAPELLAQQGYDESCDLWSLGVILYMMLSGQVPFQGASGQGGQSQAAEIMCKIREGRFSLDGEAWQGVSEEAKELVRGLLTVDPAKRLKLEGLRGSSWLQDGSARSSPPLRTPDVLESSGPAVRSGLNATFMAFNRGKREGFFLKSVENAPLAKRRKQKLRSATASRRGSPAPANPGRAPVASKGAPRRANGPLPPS
In short: as §1

[8] = target: T2, MAP3K2 (Homo sapiens, UniProt Q9Y2U5)
T2 sequence (Q9Y2U5 1-619): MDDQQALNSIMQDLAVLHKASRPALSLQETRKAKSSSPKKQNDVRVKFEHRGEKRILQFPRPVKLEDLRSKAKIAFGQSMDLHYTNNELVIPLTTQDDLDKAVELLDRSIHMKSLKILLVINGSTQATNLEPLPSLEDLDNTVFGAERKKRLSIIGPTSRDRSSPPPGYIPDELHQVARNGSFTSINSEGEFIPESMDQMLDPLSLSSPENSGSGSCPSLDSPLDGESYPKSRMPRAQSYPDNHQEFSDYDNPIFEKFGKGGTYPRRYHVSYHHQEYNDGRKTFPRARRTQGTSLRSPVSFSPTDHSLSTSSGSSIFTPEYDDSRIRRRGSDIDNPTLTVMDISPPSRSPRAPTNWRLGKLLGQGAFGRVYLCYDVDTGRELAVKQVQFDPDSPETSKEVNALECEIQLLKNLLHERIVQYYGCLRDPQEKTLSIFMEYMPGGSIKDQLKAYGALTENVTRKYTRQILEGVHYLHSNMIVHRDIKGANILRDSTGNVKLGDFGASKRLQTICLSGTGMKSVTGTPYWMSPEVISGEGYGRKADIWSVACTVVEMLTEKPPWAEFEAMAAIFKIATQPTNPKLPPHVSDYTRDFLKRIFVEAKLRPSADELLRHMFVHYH
In short: as §1

[9] = target: PAK4 (Homo sapiens, UniProt O96013)
PAK4, sequence (O96013 whole entry): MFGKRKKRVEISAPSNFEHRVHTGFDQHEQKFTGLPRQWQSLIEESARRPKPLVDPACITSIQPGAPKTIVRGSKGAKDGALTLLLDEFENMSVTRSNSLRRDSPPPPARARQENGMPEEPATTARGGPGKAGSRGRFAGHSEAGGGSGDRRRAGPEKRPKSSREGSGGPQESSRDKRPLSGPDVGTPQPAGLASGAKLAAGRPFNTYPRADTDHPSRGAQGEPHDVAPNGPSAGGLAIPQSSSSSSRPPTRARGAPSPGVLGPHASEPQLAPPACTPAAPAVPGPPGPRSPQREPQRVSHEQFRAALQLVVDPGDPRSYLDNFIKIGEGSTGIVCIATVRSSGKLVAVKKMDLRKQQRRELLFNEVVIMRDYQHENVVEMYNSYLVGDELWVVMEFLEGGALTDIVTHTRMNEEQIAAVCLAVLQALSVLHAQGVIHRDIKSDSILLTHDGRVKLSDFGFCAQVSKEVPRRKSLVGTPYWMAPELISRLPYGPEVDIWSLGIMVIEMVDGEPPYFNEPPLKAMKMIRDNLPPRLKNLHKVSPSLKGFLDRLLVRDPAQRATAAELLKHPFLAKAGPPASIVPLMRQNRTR
In short: as §1

[10] = target: LRRK2 (Homo sapiens, UniProt Q5S007)
In short: as §1

[11] = target: RSK3 (Homo sapiens, UniProt Q15349)
RSK3, sequence (Q15349 whole entry): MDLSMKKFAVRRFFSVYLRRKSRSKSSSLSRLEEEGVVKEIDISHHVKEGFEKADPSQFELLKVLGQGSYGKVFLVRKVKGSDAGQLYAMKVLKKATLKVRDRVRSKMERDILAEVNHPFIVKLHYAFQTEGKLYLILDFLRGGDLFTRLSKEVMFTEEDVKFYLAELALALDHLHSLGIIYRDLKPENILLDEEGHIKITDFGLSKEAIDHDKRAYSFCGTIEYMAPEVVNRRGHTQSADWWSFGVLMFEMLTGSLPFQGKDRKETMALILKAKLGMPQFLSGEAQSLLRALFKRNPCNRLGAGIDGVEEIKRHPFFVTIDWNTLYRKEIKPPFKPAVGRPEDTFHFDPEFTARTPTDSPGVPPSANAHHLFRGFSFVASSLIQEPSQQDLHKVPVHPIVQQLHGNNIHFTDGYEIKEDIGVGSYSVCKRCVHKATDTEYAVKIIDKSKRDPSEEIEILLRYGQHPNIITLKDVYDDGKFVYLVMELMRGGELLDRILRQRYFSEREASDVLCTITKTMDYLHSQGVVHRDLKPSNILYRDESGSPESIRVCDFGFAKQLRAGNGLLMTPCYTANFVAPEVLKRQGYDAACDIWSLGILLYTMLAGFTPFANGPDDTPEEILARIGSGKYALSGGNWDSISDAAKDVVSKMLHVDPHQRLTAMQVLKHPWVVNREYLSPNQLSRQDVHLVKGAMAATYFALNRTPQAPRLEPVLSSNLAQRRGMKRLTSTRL
In short: as §1

[12] = target: MAP2K6 (Homo sapiens, UniProt P52564)
In short: as §1

[13] = target: JNK2 (Homo sapiens, UniProt P45984)
In short: as §1

[14] = target: IRE1 (Homo sapiens, UniProt O75460)
In short: as §1

[15] = target: CaMKK2 (Homo sapiens, UniProt Q96RR4)
CaMKK2, sequence (Q96RR4 whole entry): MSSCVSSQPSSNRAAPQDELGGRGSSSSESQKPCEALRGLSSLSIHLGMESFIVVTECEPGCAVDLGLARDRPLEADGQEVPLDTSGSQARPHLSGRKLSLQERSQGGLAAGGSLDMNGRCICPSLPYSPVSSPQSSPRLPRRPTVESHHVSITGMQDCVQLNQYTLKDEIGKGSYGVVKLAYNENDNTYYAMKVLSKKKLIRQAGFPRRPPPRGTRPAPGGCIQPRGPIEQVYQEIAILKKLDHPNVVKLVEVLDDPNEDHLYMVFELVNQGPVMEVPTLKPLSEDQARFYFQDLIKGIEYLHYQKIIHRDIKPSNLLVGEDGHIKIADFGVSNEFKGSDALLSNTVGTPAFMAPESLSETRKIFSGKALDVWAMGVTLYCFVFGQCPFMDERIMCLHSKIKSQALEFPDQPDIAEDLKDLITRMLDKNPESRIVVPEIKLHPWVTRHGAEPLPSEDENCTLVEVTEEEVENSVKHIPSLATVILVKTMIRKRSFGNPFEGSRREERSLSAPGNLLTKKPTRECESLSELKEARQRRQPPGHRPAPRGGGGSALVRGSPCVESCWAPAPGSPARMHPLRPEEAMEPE
In short: as §1

[16] = target: DNAPK (Homo sapiens, UniProt P78527)
In short: as §1

CaMK2g, sequence (Q13555 whole entry): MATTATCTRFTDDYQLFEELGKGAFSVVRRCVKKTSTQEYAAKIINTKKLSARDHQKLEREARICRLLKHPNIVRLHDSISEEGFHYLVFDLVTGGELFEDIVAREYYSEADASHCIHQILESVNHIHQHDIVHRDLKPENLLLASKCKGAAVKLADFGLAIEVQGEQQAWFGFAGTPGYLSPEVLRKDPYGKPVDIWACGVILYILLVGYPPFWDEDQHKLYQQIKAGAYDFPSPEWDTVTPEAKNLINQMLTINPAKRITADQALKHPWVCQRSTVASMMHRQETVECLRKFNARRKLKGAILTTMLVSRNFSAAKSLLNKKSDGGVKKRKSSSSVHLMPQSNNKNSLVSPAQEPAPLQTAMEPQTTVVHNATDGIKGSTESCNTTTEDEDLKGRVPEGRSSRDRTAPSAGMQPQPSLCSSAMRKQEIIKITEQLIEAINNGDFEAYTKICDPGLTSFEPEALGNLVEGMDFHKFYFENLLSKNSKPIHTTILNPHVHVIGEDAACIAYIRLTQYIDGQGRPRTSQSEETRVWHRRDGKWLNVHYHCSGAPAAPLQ

## CS(=O)(=O)Nc1ccccc1Nc1nc(Nc2cccc(OCCN)c2)ncc1Cl [CZC31326, N-(2-(2-(3-(2-aminoethoxy)phenylamino)-5-chloropyrimidin-4-ylamino)phenyl)methanesulfonamide]
[1]
  inhibition at 10 µM: 84.8%
[2]
  inhibition at 10 µM: 92%
[3]
  inhibition at 10 µM: 94.5%
[4]
  Competition %: 93.8%
[5]
  inhibition at 10 µM: 93.7%
[6]
  inhibition at 10 µM: 92.9%
[7]
  inhibition at 10 µM: 95.3%
[8]
  inhibition at 10 µM: 93.9%
[9]
  inhibition at 10 µM: 94.2%
[10]
  inhibition at 10 µM: 85.2%
[11]
  inhibition at 10 µM: 94.8%
[12]
  inhibition at 10 µM: 89.2%
[13]
  Competition %: 83.1%
[14]
  inhibition at 10 µM: 91.8%
[15]
  inhibition at 10 µM: 94.3%
[16]
  inhibition at 10 µM: 69.2%
